# Assay results reported in US20260297060A1, “COMPOUNDS FOR THE DEGRADATION OF MUTANT BRAF” (C4 THERAPEUTICS, INC., priority 2023, published 2026).
# Like-named read-outs stand apart in the source and are kept apart here.
# What was measured:
# A375-NRAS^Q61K cells = experiment: CTGlo Cell Viability Assay, A375-NRAS^Q61K (A375.11) cells, 96 hours; type: cell-based, human; conditions: A375.11 (A375-NRAS^Q61K) cells; for CTGlo A375.11 96 hours Emax / Emax: lowest % viability achieved
# Procedure, shortened: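 A375 cells carrying BRAF V600E and NRAS Q61K were seeded at 250 cells/well with a 10-point half-log dose series (max 10 μM final). After 96 h at 37 °C, viability was read as ATP luminescence (CellTiter-Glo), background-subtracted and normalized to DMSO (100%). GI50 from 4-parameter fit; Emax is the lowest % viability.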
# BRAF V600E = biological target: T1, BRAF V600E (Homo sapiens, UniProt P15056+Q96SW2, V600E); experiment: BRAF V600E HiBiT Degradation Assay; type: cell-based; conditions: for Emax: read-out: HiBiT-Degradation A375.10 BRAF 2 hours Emax
# T1 construct: knock-in of the HiBiT tag to the endogenous BRAF V600E locus; host or cells: A375.10 (A375 clonal line, CRISPR HiBiT knock-in at the endogenous BRAF V600E locus)
# Procedure, shortened: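 Endogenous HiBiT knock-in on BRAF V600E in A375 cells (clone A375.10); 11-point half-log series, top 10 μM, 2, 6 or 24 h at 37° C. Lytic HiBiT luminescence, background-subtracted, normalized to DMSO; 4-parameter fit gives DC50, Emax (residual protein) and IP (inflection point).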
# [1] = A375.10 cells, BRAF V600E, 2 hours, inflection point, read-out: HiBiT-Degradation A375.10 BRAF 2 hours IP
# [2] = A375.10 cells, BRAF V600E, 2 hours, read-out: HiBiT-Degradation A375.10 BRAF 2 hours DC50
# [3] = A375.10 cells, BRAF V600E, 2 hours, residual protein remaining
# T1 sequence (P15056 whole entry V600E): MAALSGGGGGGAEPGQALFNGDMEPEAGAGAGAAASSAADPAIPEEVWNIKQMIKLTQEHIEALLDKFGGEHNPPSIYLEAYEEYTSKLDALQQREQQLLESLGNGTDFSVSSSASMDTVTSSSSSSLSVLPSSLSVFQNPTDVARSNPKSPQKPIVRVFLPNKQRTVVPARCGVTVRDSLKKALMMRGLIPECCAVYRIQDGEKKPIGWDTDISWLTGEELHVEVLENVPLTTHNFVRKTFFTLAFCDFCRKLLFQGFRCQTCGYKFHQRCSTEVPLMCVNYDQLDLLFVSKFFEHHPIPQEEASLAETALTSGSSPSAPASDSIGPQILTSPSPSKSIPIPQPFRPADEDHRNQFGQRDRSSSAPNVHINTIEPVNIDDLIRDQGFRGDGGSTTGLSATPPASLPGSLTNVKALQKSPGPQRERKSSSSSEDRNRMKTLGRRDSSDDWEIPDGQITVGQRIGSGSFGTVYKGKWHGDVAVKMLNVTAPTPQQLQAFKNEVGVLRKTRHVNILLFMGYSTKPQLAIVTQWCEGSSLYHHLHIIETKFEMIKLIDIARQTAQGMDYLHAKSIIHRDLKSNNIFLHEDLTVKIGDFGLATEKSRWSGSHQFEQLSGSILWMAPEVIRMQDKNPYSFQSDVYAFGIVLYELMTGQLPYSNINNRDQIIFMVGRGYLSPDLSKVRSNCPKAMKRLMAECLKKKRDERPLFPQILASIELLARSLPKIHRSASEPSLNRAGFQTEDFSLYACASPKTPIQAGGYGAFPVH
# T1 sequence (Q96SW2 whole entry): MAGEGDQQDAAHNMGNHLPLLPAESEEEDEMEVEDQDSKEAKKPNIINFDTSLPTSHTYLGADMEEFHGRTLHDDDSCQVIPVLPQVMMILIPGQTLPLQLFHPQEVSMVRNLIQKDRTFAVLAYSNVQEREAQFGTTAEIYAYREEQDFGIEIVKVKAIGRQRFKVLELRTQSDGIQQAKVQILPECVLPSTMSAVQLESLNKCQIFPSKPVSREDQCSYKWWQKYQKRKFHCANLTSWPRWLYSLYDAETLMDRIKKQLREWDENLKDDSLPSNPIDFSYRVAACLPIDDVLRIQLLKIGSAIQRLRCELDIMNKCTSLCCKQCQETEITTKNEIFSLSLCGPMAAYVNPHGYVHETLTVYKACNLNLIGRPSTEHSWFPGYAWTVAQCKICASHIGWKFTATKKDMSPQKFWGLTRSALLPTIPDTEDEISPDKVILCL
# T1 sequence (Q16531 whole entry partner): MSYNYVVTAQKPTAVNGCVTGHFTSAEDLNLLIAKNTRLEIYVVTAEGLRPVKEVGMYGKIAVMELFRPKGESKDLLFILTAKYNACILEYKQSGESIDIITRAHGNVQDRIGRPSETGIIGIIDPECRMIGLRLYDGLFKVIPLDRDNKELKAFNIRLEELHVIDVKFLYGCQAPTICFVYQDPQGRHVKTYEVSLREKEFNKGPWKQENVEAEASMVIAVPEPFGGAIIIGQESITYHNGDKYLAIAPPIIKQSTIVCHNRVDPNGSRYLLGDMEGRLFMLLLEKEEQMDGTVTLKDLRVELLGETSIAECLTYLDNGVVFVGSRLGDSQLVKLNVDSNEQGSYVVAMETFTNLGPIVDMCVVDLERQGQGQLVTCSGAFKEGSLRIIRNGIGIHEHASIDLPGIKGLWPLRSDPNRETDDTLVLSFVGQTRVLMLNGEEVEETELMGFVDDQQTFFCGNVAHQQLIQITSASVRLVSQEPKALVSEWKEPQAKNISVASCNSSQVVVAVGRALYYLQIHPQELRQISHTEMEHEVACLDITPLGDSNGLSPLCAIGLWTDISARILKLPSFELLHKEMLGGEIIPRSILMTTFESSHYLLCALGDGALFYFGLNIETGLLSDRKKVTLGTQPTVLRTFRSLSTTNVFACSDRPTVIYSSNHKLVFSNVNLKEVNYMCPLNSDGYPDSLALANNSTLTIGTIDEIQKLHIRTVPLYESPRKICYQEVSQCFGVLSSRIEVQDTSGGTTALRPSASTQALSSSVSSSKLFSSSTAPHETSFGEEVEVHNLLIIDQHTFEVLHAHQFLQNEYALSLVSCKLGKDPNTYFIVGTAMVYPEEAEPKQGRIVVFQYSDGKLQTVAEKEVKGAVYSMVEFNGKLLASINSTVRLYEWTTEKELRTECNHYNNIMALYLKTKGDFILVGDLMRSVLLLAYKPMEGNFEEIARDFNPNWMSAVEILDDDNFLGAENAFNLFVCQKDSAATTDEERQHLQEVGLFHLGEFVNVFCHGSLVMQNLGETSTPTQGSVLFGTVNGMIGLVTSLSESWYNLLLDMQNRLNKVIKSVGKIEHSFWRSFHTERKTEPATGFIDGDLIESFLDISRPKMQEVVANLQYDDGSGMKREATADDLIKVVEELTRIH
GI50 (A375-NRAS^Q61K cells) [µM],DC50 (BRAF V600E; [1]) [µM],DC50 (BRAF V600E; [2]) [µM],HiBiT-Degradation A375.10 BRAF 2 hours Emax (BRAF V600E; [3]),HiBiT-Degradation A375.10 BRAF 2 hours Emax (BRAF V600E),"DC50 (BRAF V600E; A375.10 cells, BRAF V600E, 6 hours, inflection point, read-out: HiBiT-Degradation A375.10 BRAF 6 hours IP) [µM]","DC50 (BRAF V600E; A375.10 cells, BRAF V600E, 6 hours, read-out: HiBiT-Degradation A375.10 BRAF 6 hours DC50) [µM]","HiBiT-Degradation A375.10 BRAF 6 hours Emax (BRAF V600E; A375.10 cells, BRAF V600E, 6 hours, residual protein remaining)","HiBiT-Degradation A375.10 BRAF 24 hours Emax (BRAF V600E; A375.10 cells, HiBiT, BRAF V600E, 24 hours)","DC50 (BRAF V600E; A375.10 cells, HiBiT, BRAF V600E, 24 hours, read-out: HiBiT-Degradation A375.10 BRAF 24 hours DC50) [µM]","DC50 (BRAF V600E; A375.10 cells, HiBiT, BRAF V600E, 24 hours, read-out: HiBiT-Degradation A375.10 BRAF 24 hours IP) [µM]","GI50 (A375-NRAS^Q61K cells; Homo sapiens, 96 h) [µM]",Emax (BRAF V600E; [3]) [%],Structure (SMILES),CTGlo A375.11 96 hours Emax (A375-NRAS^Q61K cells),"Emax (A375-NRAS^Q61K cells; Homo sapiens, 96 h) [%]"
1 to 10,< 1,< 1,–,** (<90% and >50%),–,–,–,–,–,–,–,–,"CCN(C)S(=O)(=O)Nc1ccc(F)c(Oc2ccc3ncc(OCC4CCN(C5CCC(c6cc7c(cc6F)c(N6CCC(=O)NC6=O)nn7C)CC5)CC4)nc3c2)c1C#N (single isomer, unassigned) [Compound 119, 7-[2-cyano-3-[[ethyl(methyl)sulfamoyl]amino]-6-fluoro-phenoxy]-2-[[1-[4-[3-(2,4-dioxohexahydropyrimidin-1-yl)-5-fluoro-1-methyl-indazol-6-yl]cyclohexyl]-4-piperidyl]methoxy]quinoxaline]",** (<90% and >50%),–
> 10,< 1,> 10,–,–,–,–,–,–,–,–,–,50 to 90,"CCN(C)S(=O)(=O)Nc1ccc(F)c(Oc2ccc3ncc(CCC4CCN(C5CCC(c6cc7c(cc6F)c(N6CCC(=O)NC6=O)nn7C)CC5)CC4)nc3c2)c1C#N (single isomer, unassigned) [Compound 128, 7-[2-cyano-3-[[ethyl(methyl)sulfamoyl]amino]-6-fluoro-phenoxy]-2-[2-[1-[4-[3-(2,4-dioxohexahydropyrimidin-1-yl)-5-fluoro-1-methyl-indazol-6-yl]cyclohexyl]-4-piperidyl]ethyl]quinoxaline]",–,50 to 90
1 to 10,< 1,< 1,** (<90% and >50%),–,–,–,–,–,–,–,–,–,"CCN(C)S(=O)(=O)Nc1ccc(F)c(Oc2ccc3ncc(CCC4CCN(C5CCC(c6cc7c(cc6F)c(N6CCC(=O)NC6=O)nn7C)CC5)CC4)nc3c2)c1C#N (single isomer, unassigned) [Compound 129, 7-[2-cyano-3-[[ethyl(methyl)sulfamoyl]amino]-6-fluoro-phenoxy]-2-[2-[1-[4-[3-(2,4-dioxohexahydropyrimidin-1-yl)-5-fluoro-1-methyl-indazol-6-yl]cyclohexyl]-4-piperidyl]ethyl]quinoxaline]",** (<90% and >50%),–

# Further lines, the compound ahead of its results:
Structure (SMILES),GI50 (A375-NRAS^Q61K cells) [µM],DC50 (BRAF V600E; [1]) [µM],DC50 (BRAF V600E; [2]) [µM],HiBiT-Degradation A375.10 BRAF 2 hours Emax (BRAF V600E; [3]),HiBiT-Degradation A375.10 BRAF 2 hours Emax (BRAF V600E),"DC50 (BRAF V600E; A375.10 cells, BRAF V600E, 6 hours, inflection point, read-out: HiBiT-Degradation A375.10 BRAF 6 hours IP) [µM]","DC50 (BRAF V600E; A375.10 cells, BRAF V600E, 6 hours, read-out: HiBiT-Degradation A375.10 BRAF 6 hours DC50) [µM]","HiBiT-Degradation A375.10 BRAF 6 hours Emax (BRAF V600E; A375.10 cells, BRAF V600E, 6 hours, residual protein remaining)","HiBiT-Degradation A375.10 BRAF 24 hours Emax (BRAF V600E; A375.10 cells, HiBiT, BRAF V600E, 24 hours)","DC50 (BRAF V600E; A375.10 cells, HiBiT, BRAF V600E, 24 hours, read-out: HiBiT-Degradation A375.10 BRAF 24 hours DC50) [µM]","DC50 (BRAF V600E; A375.10 cells, HiBiT, BRAF V600E, 24 hours, read-out: HiBiT-Degradation A375.10 BRAF 24 hours IP) [µM]","GI50 (A375-NRAS^Q61K cells; Homo sapiens, 96 h) [µM]",Emax (BRAF V600E; [3]) [%],CTGlo A375.11 96 hours Emax (A375-NRAS^Q61K cells),"Emax (A375-NRAS^Q61K cells; Homo sapiens, 96 h) [%]"
"CCN(C)S(=O)(=O)Nc1ccc(F)c(Oc2ccc3ncc(OCC4CCN(C5CCC(c6ccc(NC7CCC(=O)NC7=O)cc6F)CC5)CC4)nc3c2)c1C#N (single isomer, unassigned) [Compound 117, 7-[2-cyano-3-[[ethyl(methyl)sulfamoyl]amino]-6-fluoro-phenoxy]-2-[[1-[4-[4-[(2,6-dioxo-3-piperidyl)amino]-2-fluoro-phenyl]cyclohexyl]-4-piperidyl]methoxy]quinoxaline]",< 1,< 1,< 1,*** (<=50%),–,–,–,–,–,–,–,–,–,** (<90% and >50%),–
"Cn1nc(N2CCC(=O)NC2=O)c2cc(F)c(C3CCC(N4CCC5(CC4)CC(n4cnc6ccc(Oc7c(F)ccc(NS(=O)(=O)N8CC[C@@H](F)C8)c7C#N)cc6c4=O)C5)CC3)cc21 (single isomer, unassigned) [Compound 123]",< 1,< 1,< 1,*** (<=50%),–,< 1,< 1,*** (<=50%),*** (<=50%),< 1,< 1,–,–,*** (<=50%),–
"CCN(C)S(=O)(=O)Nc1ccc(F)c(Oc2ccc3ncc(OC4CCN(C5CCC(c6cc7c(cc6F)c(N6CCC(=O)NC6=O)nn7C)CC5)CC4)nc3c2)c1C#N (single isomer, unassigned) [Compound 124, 7-[2-cyano-3-[[ethyl(methyl)sulfamoyl]amino]-6-fluoro-phenoxy]-2-[[1-[4-[3-(2,4-dioxohexahydropyrimidin-1-yl)-5-fluoro-1-methyl-indazol-6-yl]cyclohexyl]-4-piperidyl]oxy]quinoxaline]",–,< 1,1 to 10,–,–,–,–,–,–,–,–,> 10,< 50,–,50 to 90
